{
  "source": "patent US20170273922A1",
  "about": "“UREA AND BIS-UREA BASED COMPOUNDS AND ANALOGUES THEREOF USEFUL IN THE TREATMENT OF ANDROGEN RECEPTOR MEDIATED DISEASES OR DISORDERS” (THE ROYAL INSTITUTION FOR THE ADVACEMENT OF LEARNING/MCGILL …, priority 2014, published 2017)",
  "key": {"AR-v7": {"molecular_target": "T1, AR-v7 (Homo sapiens, UniProt P10275)", "T1 sequence (P10275 1-644 isoform P10275-3)": "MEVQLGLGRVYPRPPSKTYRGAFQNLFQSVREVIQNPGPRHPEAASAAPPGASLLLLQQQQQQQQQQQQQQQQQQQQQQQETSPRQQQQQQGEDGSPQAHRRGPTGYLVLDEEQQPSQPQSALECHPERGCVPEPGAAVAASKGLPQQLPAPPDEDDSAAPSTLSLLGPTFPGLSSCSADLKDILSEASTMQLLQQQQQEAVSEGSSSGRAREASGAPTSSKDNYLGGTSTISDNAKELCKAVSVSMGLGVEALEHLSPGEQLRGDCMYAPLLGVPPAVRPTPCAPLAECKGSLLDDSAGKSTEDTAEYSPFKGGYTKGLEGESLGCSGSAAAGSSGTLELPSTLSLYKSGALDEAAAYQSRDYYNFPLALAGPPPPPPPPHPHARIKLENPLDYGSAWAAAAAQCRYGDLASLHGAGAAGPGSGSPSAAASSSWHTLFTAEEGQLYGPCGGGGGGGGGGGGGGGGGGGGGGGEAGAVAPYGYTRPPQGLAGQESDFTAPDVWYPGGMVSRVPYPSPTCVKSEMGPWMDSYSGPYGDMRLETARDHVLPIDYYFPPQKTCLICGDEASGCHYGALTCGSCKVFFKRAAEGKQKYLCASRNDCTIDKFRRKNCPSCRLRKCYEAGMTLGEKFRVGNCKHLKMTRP", "assay": "AR-v7-dependent PSA-luc reporter assay in HEK293 cells", "conditions": "25 μM", "procedure": "Cells were exposed to vehicle control or compounds at designated concentrations (μM) for 48 h."}, "AR^v567es": {"molecular_target": "T2, AR^v567es (Homo sapiens, UniProt P10275)", "T2 construct": "host or cells: COS-1", "T2 sequence (P10275 with tags, fused parts or gaps limits assumed)": "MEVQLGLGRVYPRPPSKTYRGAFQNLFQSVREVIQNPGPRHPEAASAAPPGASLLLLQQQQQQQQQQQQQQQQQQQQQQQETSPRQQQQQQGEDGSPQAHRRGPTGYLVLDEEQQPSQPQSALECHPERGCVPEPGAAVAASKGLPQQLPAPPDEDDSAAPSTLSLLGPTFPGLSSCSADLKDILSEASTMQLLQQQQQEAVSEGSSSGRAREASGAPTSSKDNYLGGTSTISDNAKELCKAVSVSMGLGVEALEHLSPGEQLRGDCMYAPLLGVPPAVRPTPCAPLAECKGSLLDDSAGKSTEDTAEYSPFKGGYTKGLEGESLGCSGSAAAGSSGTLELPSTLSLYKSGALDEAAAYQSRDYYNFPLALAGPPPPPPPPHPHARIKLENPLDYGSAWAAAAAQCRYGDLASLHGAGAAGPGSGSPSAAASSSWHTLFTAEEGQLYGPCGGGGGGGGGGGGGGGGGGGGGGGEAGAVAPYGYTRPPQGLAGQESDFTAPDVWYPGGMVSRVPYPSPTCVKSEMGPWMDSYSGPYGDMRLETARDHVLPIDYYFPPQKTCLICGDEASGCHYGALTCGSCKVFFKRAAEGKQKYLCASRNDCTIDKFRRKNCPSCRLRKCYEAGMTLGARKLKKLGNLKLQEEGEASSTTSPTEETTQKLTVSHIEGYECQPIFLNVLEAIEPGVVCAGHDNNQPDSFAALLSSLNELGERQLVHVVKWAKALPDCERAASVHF", "conditions": "25 μM; COS-1 cells; cited from earlier work"}, "[1]": {"tested_on": "endogenous AR-Vs in 22Rv1 cells", "assay": "PSA-luc reporter assay in androgen-starved 22Rv1 cells (endogenous LBD-truncated AR variants)", "conditions": "androgen-starved 3 days, 24 h exposure", "procedure": "NT, LNCaP cells were transiently transfected with pIRES vector, PSA-luc and pRL-TK. […] Cells were then transiently transfected with PSA-Luc and pRL-TK and exposed to DMSO or compounds for 24 h, in triplicate. NT, not transfected with PSA-luc.\nThe ARs were probed by N-terminal directed AR antibody (N20, Santa Cruz); B) The 22Rv1 cells were androgen-starved (in phenol red-free medium+10% CS-FBS) for 3 days to ensure the full-length AR expressed in 22Rv1 are not activated. The 22Rv1 cells were subsequently co-transfected with PSA-luc and pRL-TK plasmids. […] Cells in phenol red-free medium+10% CS-FBS were exposed to DMSO or compounds for 24 h and harvested for Western blot analysis.\nThe cells were androgen-starved for 3 days and transfected with PSA-Luc and pRL-TK plasmids. NT, cells were transfected with empty vector. Cells were exposed to vehicle control or compounds for 24 h."}, "AR-v7 in LNCaP cells": {"molecular_target": "T3, AR-v7 in LNCaP cells (Homo sapiens, UniProt P10275)", "T3 sequence (P10275 1-644 isoform P10275-3)": "T1 sequence (P10275 1-644 isoform P10275-3)", "assay": "PSA-luc reporter assay in LNCaP cells transiently transfected with pIRES-AR-v7", "conditions": "24 h", "procedure": "NT, LNCaP cells were transiently transfected with pIRES vector, PSA-luc and pRL-TK. […] Cells were then transiently transfected with PSA-Luc and pRL-TK and exposed to DMSO or compounds for 24 h, in triplicate."}},
  "note": "“Also recorded” adds a separate entry of the source.",
  "data": [
    {"smiles": "CC(C)(c1ccc(OCC(O)CO)cc1)c1ccc(OCC(O)CCl)cc1", "note": "(stereo not drawn) [EPI-001, reference compound]", "values": [
      {"measurement": "inhibition of constitutive activation of AR-v7 (PSA-luc)", "setting": "AR-v7", "result": "inhibit; also recorded: active"},
      {"measurement": "suppression of constitutive activation of AR^v567es in PSA-Luc reporter assay", "setting": "AR^v567es", "result": "half"},
      {"measurement": "activity against constitutive activation of endogenous AR-Vs in 22Rv1 cells (PSA-luc)", "setting": "[1]", "result": "active"},
      {"measurement": "activity in LNCaP cells with forced expression of AR-v7 (PSA-luc)", "setting": "AR-v7 in LNCaP cells", "result": "remain active"}
    ]}
  ]
}
